The source of these data is patent publication US5126134A, “Pharmaceutically active combination” (Ciba-Geigy Corporation, priority 1988, dated 1992).

For assay [1], the system named is coagulation (clotting time, aPTT) of citrated plasma. The assay is described as follows: In vitro clot lysis / coagulation in citrated plasma with t-PA. The class given is biochemical, Human. The conditions noted are these: for concentration leading to the same prolongation of aPTT (equipotent concentration): human citrated plasma. As for the experimental part:
Human blood is directly withdrawn into 3.8% sodium citrate solution (ratio blood/citrate solution 9:1). The mixture is centrifuged at 1,000 rpm for 10 min to yield citrated plasma.
A mixture consisting of 150 μl citrated plasma 125 μl 0.9% sodium chloride solution 100 μl desulfato hirudin HV1 or MCI-9038 (see below) in 0.9% sodium chloride is prepared directly in 1 ml cuvettes equilibrated at 37° C. The mixture is incubated for 15 min at 37° C. Then, 25 μl of a 1 μg/ml t-PA stock solution (American Diagnostica, New York) and 300 μl 0.0025M calcium chloride solution are added to start coagulation.
The change in the optical density (coagulation) is continuously measured at 608 nm in a Uvikon 810 P spectrophotometer equipped with a kinetic program.
The time (in minutes) from addition of the CaCl2 solution to a change in absorbance greater than 0.025 is defined as the coagulation time. The clot lysis time (in minutes) is defined as the time from the beginning of the clotting to the time at which the absorbance decreased to 10% of the maximum absorbance.
The thrombin inhibitor MCI-9038 [(2R,4R)-4-methyl-1-[N^2 -[(3-methyl-1,2,3,4-tetrahydro-8-quinolyl)-sulfonyl]-L-arginyl]-2-piperidinecarboxylic acid] is chemically synthesized as described in S. Okamoto et al., Biochem. Biophys. Res. Commun. 101, 440-446 (1981). It is used at the following end concentrations: 0.07, 0.14, 0.28, 0.56 and 1.1 μM. The desulfato hirudin used has been prepared by recombinant DNA technology using transformed yeast according to the procedure described in European Patent Application No. 225,633. It is used at the following end concentrations: 0.8, 1.6, 3.2, 8 and 16 nM. The concentrations chosen of MCI-9038 and desulfato hirudin are equipotent concentrations in terms of prolongation of clotting time (coagulation), e.g. 1.2 μM MCl-9038 and 16 nM desulfato hirudin lead to the same prolongation of aPTT.

Assay [2] relates to activated partial thromboplastin time. The assay is described as follows: aPTT prolongation in control experiments (rabbit model). The class given is in vivo, New Zealand white rabbits. As to conditions: heparin 0.75 mg/kg, hirudin 1 mg/kg. The procedure: Intravenous infusions are carried out by using a constant rate infusion pump. t-PA derived from melanoma cell cultures is obtained from BioResponse, USA. A total dose of 0.5 mg t-PA is infused through the marginal ear vein over a period of 3 hours. Along with t-PA either saline, standard heparin (KabiVitrum, Sweden, 140 USP/mg; 0.75 mg/kg) or hirudin (1 mg/kg) are infused. Doses of heparin and hirudin are used which give in control experiments the same prolongation in aPTT (activated partial thromboplastin time), e.g. times two.

Assay [3] concerns preformed non-radioactive thrombi in the jugular vein. As to the kind of experiment: Rabbit jugular vein thrombosis model: inhibition of thrombus accretion during thrombolysis with t-PA. The class given is in vivo, New Zealand white rabbits. The procedure: The experiments are performed with New Zealand white rabbits (weighing 2.3-3.5 kg) anaesthesized by intravenous (marginal ear vein) injection of 30 mg/kg sodium pentobarbital. Through a paramedical incision of the neck, the jugular veins and the right carotid artery are exposed. The right carotid artery is cannulated with a 1.5 mm diameter polyethylene cannula for blood sampling. The two jugular veins are isolated, cleared over a distance of 2 cm, small side branches are ligated. Each jugular segment is emptied of blood and blood flow is temporarily occluded both proximally and distally by two angiostaths, 1.5 cm apart. A 10 cm length 3.0 TiCron braided polyester suture, presoaked in a collagen solution, is introduced lengthwise in the lumen of the isolated jugular vein for a distance of 4 cm to avoid the embolization of the thrombus to be produced. […] The effects of standard heparin and recombinant desulfato hirudin in preventing thrombus extension during thrombolysis with t-PA are assessed as their ability to inhibit the accretion of ^125 I-fibrinogen onto autologous non-radioactive thrombi preformed in the jugular vein of rabbits. […] The ratio of the radioactivity of the thrombus to the circulating fibrinogen radioactivity is used to quantify thrombus size, which is then expressed as μg or ^125 I-fibrinogen accreted onto the thrombus.

On to `CC1CNc2c(cccc2S(=O)(=O)N[C@@H](CCCNC(=N)N)C(=O)N2CC[C@@H](C)C[C@@H]2C(=O)O)C1` (stereo partly drawn) [MCI-9038, (2R,4R)-4-methyl-1-[N^2-[(3-methyl-1,2,3,4-tetrahydro-8-quinolyl)-sulfonyl]-L-arginyl]-2-piperidinecarboxylic acid], for which the “concentration leading to the same prolongation of aPTT (equipotent concentration)” value in assay [1] (equipotent with 16 nM desulfato hirudin) worked out at 1.2 µM. The “concentration needed to achieve the same effect as a given concentration of desulfato hirudin” value in assay [1] (relative to desulfato hirudin, in vitro clot lysis) is listed as “twenty-fold”.
Regarding desulfato hirudin HV1, in assay [2], the “prolongation in aPTT” value is “times two”. In addition, in assay [3] (FIG. 1, infused along with t-PA, heparin 0.75 mg/kg, desulfato hirudin 1 mg/kg), the “effect on thrombus accretion during t-PA thrombolysis” value is “clear reduction in thrombus accretion”. Besides, in assay [3] (FIG. 2, t-PA with various concentrations of desulfato hirudin), the “effect on thrombus accretion with increasing concentrations” value is recorded as “this effect can even be potentiated”. Moreover, in assay [1] (equipotent with 1.2 μM MCI-9038), the “concentration leading to the same prolongation of aPTT (equipotent concentration)” value is 0.016 µM.
